How the values were obtained:
Assay type in all cases: in vivo
[1] = system: barnyardgrass (Echinochloa crus-galli); assay: Test A preemergence, barnyardgrass; conditions: Preemergence; for Barnyardgrass plant response rating: 125 g ai/ha, visual injury on 0 to 100 scale (0 no effect, 100 complete control), approximately 10 days; for Plant response rating, Barnyardgrass: 500 g ai/ha, 0 to 100 scale (0 no effect, 100 complete control)
Source text: (§1) Seeds of plant species selected from barnyardgrass (Echinochloa crus-galli), kochia (Bassia scoparia), ragweed (common ragweed, Ambrosia artemisiifolia), Ryegrass, Italian (Italian ryegrass, Lolium multiflorum), Foxtail, Giant (giant foxtail, Setaria faberi), and pigweed (Amaranthus retroflexus) were planted into a blend of loam soil and sand and treated preemergence with a directed soil spray using test chemicals formulated in a non-phytotoxic solvent mixture which included a surfactant. At the same time, plants selected from these weed species and also wheat (Triticum aestivum), corn (Zea mays), blackgrass (Alopecurus myosuroides), and galium (catchweed bedstraw, Galium aparine) were planted in pots containing the same blend of loam soil and sand and treated with postemergence applications of test chemicals formulated in the same manner. Plants ranged in height from 2 to 10 cm and were in the one- to two-leaf stage for the postemergence treatment. […] A dash (-) response means no test result.

kochia (Bassia scoparia) [2] = assay: Test A preemergence, kochia; conditions: Preemergence; for Kochia plant response rating: 125 g ai/ha, visual injury on 0 to 100 scale (0 no effect, 100 complete control), approximately 10 days; for Plant response rating, Kochia: 500 g ai/ha, 0 to 100 scale (0 no effect, 100 complete control)
Source text: as §1

[3] = system: ragweed (common ragweed, Ambrosia artemisiifolia); assay: Test A preemergence, ragweed; conditions: Preemergence; for Ragweed plant response rating: 125 g ai/ha, visual injury on 0 to 100 scale (0 no effect, 100 complete control), approximately 10 days; for Plant response rating, Ragweed: 500 g ai/ha, 0 to 100 scale (0 no effect, 100 complete control)
Source text: as §1

[4] = system: Ryegrass, Italian (Italian ryegrass, Lolium multiflorum); assay: Test A preemergence, Ryegrass, Italian; conditions: Preemergence; for Ryegrass, Italian plant response rating: 125 g ai/ha, visual injury on 0 to 100 scale (0 no effect, 100 complete control), approximately 10 days; for Plant response rating, Ryegrass, Italian: 500 g ai/ha, 0 to 100 scale (0 no effect, 100 complete control)
Source text: as §1

[5] = system: Foxtail, Giant (giant foxtail, Setaria faberi); assay: Test A preemergence, Foxtail, Giant; conditions: Preemergence; for Foxtail, Giant plant response rating: 125 g ai/ha, visual injury on 0 to 100 scale (0 no effect, 100 complete control), approximately 10 days; for Plant response rating, Foxtail, Giant: 500 g ai/ha, 0 to 100 scale (0 no effect, 100 complete control)
Source text: as §1

[6] = system: barnyardgrass (Echinochloa crus-galli); assay: Test A postemergence, barnyardgrass; conditions: Postemergence, 0 to 100 scale (0 no effect, 100 complete control); for Plant response rating, Barnyardgrass: 125 g ai/ha; for Barnyardgrass plant response rating: 500 g ai/ha, visual injury vs untreated controls after approx. 10 days
Source text: as §1

kochia (Bassia scoparia) [7] = assay: Test A postemergence, kochia; conditions: Postemergence, 0 to 100 scale (0 no effect, 100 complete control); for Plant response rating, Kochia: 125 g ai/ha; for Kochia plant response rating: 500 g ai/ha, visual injury vs untreated controls after approx. 10 days
Source text: as §1

[8] = system: ragweed (common ragweed, Ambrosia artemisiifolia); assay: Test A postemergence, ragweed; conditions: Postemergence, 0 to 100 scale (0 no effect, 100 complete control); for Plant response rating, Ragweed: 125 g ai/ha; for Ragweed plant response rating: 500 g ai/ha, visual injury vs untreated controls after approx. 10 days
Source text: as §1

[9] = system: Ryegrass, Italian (Italian ryegrass, Lolium multiflorum); assay: Test A postemergence, Ryegrass, Italian; conditions: Postemergence, 0 to 100 scale (0 no effect, 100 complete control); for Plant response rating, Ryegrass, Italian: 125 g ai/ha; for Ryegrass, Italian plant response rating: 500 g ai/ha, visual injury vs untreated controls after approx. 10 days
Source text: as §1

[10] = system: Foxtail, Giant (giant foxtail, Setaria faberi); assay: Test A postemergence, Foxtail, Giant; conditions: Postemergence, 0 to 100 scale (0 no effect, 100 complete control); for Plant response rating, Foxtail, Giant: 125 g ai/ha; for Foxtail, Giant plant response rating: 500 g ai/ha, visual injury vs untreated controls after approx. 10 days
Source text: as §1

[11] = system: pigweed (Amaranthus retroflexus); assay: Test A postemergence, pigweed; conditions: Postemergence, 0 to 100 scale (0 no effect, 100 complete control); for Plant response rating, Pigweed: 125 g ai/ha; for Pigweed plant response rating: 500 g ai/ha, visual injury vs untreated controls after approx. 10 days
Source text: as §1

[12] = system: wheat (Triticum aestivum); assay: Test A postemergence, wheat; conditions: Postemergence, 0 to 100 scale (0 no effect, 100 complete control); for Plant response rating, Wheat: 125 g ai/ha; for Wheat plant response rating: 500 g ai/ha, visual injury vs untreated controls after approx. 10 days
Source text: as §1

corn (Zea mays) = assay: Test A postemergence, corn; conditions: Postemergence, 0 to 100 scale (0 no effect, 100 complete control); for Plant response rating, Corn: 125 g ai/ha; for Corn plant response rating: 500 g ai/ha, visual injury vs untreated controls after approx. 10 days
Source text: as §1

[13] = system: blackgrass (Alopecurus myosuroides); assay: Test A postemergence, blackgrass; conditions: Postemergence, 0 to 100 scale (0 no effect, 100 complete control); for Plant response rating, Blackgrass: 125 g ai/ha; for Blackgrass plant response rating: 500 g ai/ha, visual injury vs untreated controls after approx. 10 days
Source text: as §1

[14] = system: galium (catchweed bedstraw, Galium aparine); assay: Test A postemergence, galium; conditions: Postemergence, 0 to 100 scale (0 no effect, 100 complete control); for Plant response rating, Galium: 125 g ai/ha; for Galium plant response rating: 500 g ai/ha, visual injury vs untreated controls after approx. 10 days
Source text: as §1

Cc1cc(C)c(C2=NOC3(CCC(F)(F)CC3)C2)cc1NS(=O)(=O)C(F)(F)F [Compound 172]
Barnyardgrass plant response rating [1]: 90
Plant response rating, Barnyardgrass [1]: 90
Kochia plant response rating (kochia (Bassia scoparia) [2]): 60
Plant response rating, Kochia (kochia (Bassia scoparia) [2]): 90
Ragweed plant response rating [3]: 40
Plant response rating, Ragweed [3]: 90
Ryegrass, Italian plant response rating [4]: 100
Plant response rating, Ryegrass, Italian [4]: 100
Foxtail, Giant plant response rating [5]: 90
Plant response rating, Foxtail, Giant [5]: 100
Plant response rating, Barnyardgrass [6]: 60
Barnyardgrass plant response rating [6]: 80
Plant response rating, Kochia (kochia (Bassia scoparia) [7]): 40
Kochia plant response rating (kochia (Bassia scoparia) [7]): 80
Plant response rating, Ragweed [8]: 60
Ragweed plant response rating [8]: 80
Plant response rating, Ryegrass, Italian [9]: 60
Ryegrass, Italian plant response rating [9]: 80
Plant response rating, Foxtail, Giant [10]: 20
Foxtail, Giant plant response rating [10]: 80
Plant response rating, Pigweed [11]: 70
Pigweed plant response rating [11]: 90
Plant response rating, Wheat [12]: 30
Wheat plant response rating [12]: 70
Plant response rating, Corn (corn (Zea mays)): 40
Corn plant response rating (corn (Zea mays)): 70
Plant response rating, Blackgrass [13]: 0
Blackgrass plant response rating [13]: 40
Plant response rating, Galium [14]: 90
Galium plant response rating [14]: 90

C#CCN(C)C(=O)c1cc(N(S(=O)(=O)C(F)(F)F)S(=O)(=O)C(F)(F)F)c(C)c(F)c1C [Compound 147]
Barnyardgrass plant response rating [1]: 90
Plant response rating, Barnyardgrass [1]: 100
Kochia plant response rating (kochia (Bassia scoparia) [2]): 70
Plant response rating, Kochia (kochia (Bassia scoparia) [2]): 90
Ragweed plant response rating [3]: 90
Plant response rating, Ragweed [3]: 90
Ryegrass, Italian plant response rating [4]: 90
Plant response rating, Ryegrass, Italian [4]: 100
Foxtail, Giant plant response rating [5]: 90
Plant response rating, Foxtail, Giant [5]: 100
Plant response rating, Barnyardgrass [6]: 90
Barnyardgrass plant response rating [6]: 90
Plant response rating, Kochia (kochia (Bassia scoparia) [7]): 50
Kochia plant response rating (kochia (Bassia scoparia) [7]): 70
Plant response rating, Ragweed [8]: 90
Ragweed plant response rating [8]: 90
Plant response rating, Ryegrass, Italian [9]: 30
Ryegrass, Italian plant response rating [9]: 70
Plant response rating, Foxtail, Giant [10]: 70
Foxtail, Giant plant response rating [10]: 90
Plant response rating, Pigweed [11]: 70
Pigweed plant response rating [11]: 90
Plant response rating, Wheat [12]: 30
Wheat plant response rating [12]: 60
Plant response rating, Corn (corn (Zea mays)): 10
Corn plant response rating (corn (Zea mays)): 80
Plant response rating, Blackgrass [13]: 0
Blackgrass plant response rating [13]: 30
Plant response rating, Galium [14]: 80
Galium plant response rating [14]: 90

Cc1cc(C)c(C2=NOC3(C2)CC(C)OC(C)C3)cc1NS(=O)(=O)C(F)(F)F (single isomer, unassigned) [Compound 173]
Barnyardgrass plant response rating [1]: 90
Plant response rating, Barnyardgrass [1]: 90
Kochia plant response rating (kochia (Bassia scoparia) [2]): 60
Plant response rating, Kochia (kochia (Bassia scoparia) [2]): 90
Ragweed plant response rating [3]: 90
Plant response rating, Ragweed [3]: 90
Ryegrass, Italian plant response rating [4]: 90
Plant response rating, Ryegrass, Italian [4]: 100
Foxtail, Giant plant response rating [5]: 100
Plant response rating, Foxtail, Giant [5]: 100
Plant response rating, Barnyardgrass [6]: 80
Barnyardgrass plant response rating [6]: 90
Plant response rating, Kochia (kochia (Bassia scoparia) [7]): 50
Kochia plant response rating (kochia (Bassia scoparia) [7]): 80
Plant response rating, Ragweed [8]: 80
Ragweed plant response rating [8]: 90
Plant response rating, Ryegrass, Italian [9]: 70
Ryegrass, Italian plant response rating [9]: 80
Plant response rating, Foxtail, Giant [10]: 90
Foxtail, Giant plant response rating [10]: 90
Plant response rating, Pigweed [11]: 80
Pigweed plant response rating [11]: 90
Plant response rating, Wheat [12]: 70
Wheat plant response rating [12]: 70
Plant response rating, Corn (corn (Zea mays)): 70
Corn plant response rating (corn (Zea mays)): 80
Plant response rating, Blackgrass [13]: 50
Blackgrass plant response rating [13]: 60
Plant response rating, Galium [14]: 90
Galium plant response rating [14]: 90

COC1CCN(C(=O)c2cc(N(S(=O)(=O)C(F)(F)F)S(=O)(=O)C(F)(F)F)c(C)cc2C)C1 (stereo not shown) [Compound 138]
Plant response rating, Ragweed [8]: 30
Plant response rating, Ryegrass, Italian [9]: 0
Plant response rating, Pigweed [11]: 90
Plant response rating, Wheat [12]: 30
